Experimental data published in BigSolDB 2.1.

CC(=O)Nc1ccccc1[N+](=O)[O-]
solubility (mole fraction)
Conditions	278.15 K	283.15 K	288.15 K	293.15 K	298.15 K	303.15 K	308.15 K	313.15 K	318.15 K	323.15 K
in 1,4-dioxane	–	–	0.13	0.147	0.165	0.186	0.211	0.244	0.284	0.343
in DMF	0.167	0.178	0.192	0.213	0.238	0.266	0.295	0.327	0.373	0.426
in NMP	0.195	0.215	0.239	0.268	0.299	0.33	0.367	0.404	0.445	0.491
in acetonitrile	0.0156	0.0176	0.021	0.0248	0.0302	0.0387	0.0511	0.0675	0.0932	0.124
in cyclohexane	–	0.00106	0.00133	0.00167	0.00216	0.00275	0.00357	0.00474	0.00634	0.0084
in ethanol	0.0143	0.0163	0.0188	0.0226	0.0276	0.0323	0.0382	0.0447	0.0516	0.0615
in ethyl acetate	0.0478	0.0545	0.0662	0.079	0.094	0.112	0.135	0.163	0.21	0.263
in ethylene glycol	0.00464	0.00517	0.00599	0.00714	0.00855	0.0103	0.0126	0.0155	0.0187	0.0224
in isobutanol	0.00896	0.00984	0.0115	0.0134	0.0162	0.0202	0.0246	0.0302	0.0374	0.0483
in isopropanol	0.00743	0.00851	0.00991	0.0121	0.0151	0.0184	0.0227	0.0279	0.036	0.0468
in methanol	0.0181	0.021	0.0248	0.0289	0.0331	0.0394	0.0463	0.0558	0.0703	0.0926
in n-butanol	0.00975	0.011	0.0127	0.016	0.0196	0.0232	0.028	0.0341	0.0422	0.0529
in n-heptanol	0.00627	0.00721	0.00829	0.0105	0.0129	0.0163	0.0209	0.0261	0.0337	0.042
in n-propanol	0.0129	0.0144	0.0167	0.0204	0.0245	0.0285	0.0331	0.0393	0.0468	0.0578
in water	9.9e-05	0.000128	0.00016	0.000201	0.000249	0.00032	0.000412	0.000521	0.000662	0.000824
